Data published in ChEMBL document CHEMBL3217590, “Discovery of a new class of dithiocarbamates and rhodanine scaffolds as potent antifungal agents: synthesis, biology and molecular docking” (Medchemcomm, 2012).
In brackets after ≈: the same amount, converted by molar mass.

Key:
[1] = tested on: Candida albicans; assay: Anticandidal activity against Candida albicans CDRI after 24 to 48 hrs by broth microdilution technique; format: functional
[2] = tested on: Candida albicans; assay: Anticandidal activity against amphotericin-B resistant Candida albicans after 24 to 48 hrs by broth microdilution technique; format: functional
[3] = tested on: Candida albicans; assay: Anticandidal activity against Candida albicans MTCC183 after 24 to 48 hrs by broth microdilution technique; format: functional
[4] = tested on: L929; assay: Cytotoxicity against mouse L929 cells assessed as morphological changes up to 3.12 ug/ml after 24 hrs by giemsa staining based phase contrast microscopy; format: cell-based; details: l929, 24 h
[5] = tested on: Candida albicans; assay: Anticandidal activity against Candida albicans ATCC14053 after 24 to 48 hrs by broth microdilution technique; format: functional
[6] = tested on: L929; assay: Cytotoxicity against mouse L929 cells assessed as decline in cell survival at 12.5 to 50 ug/ml after 24 hrs by spectrophotometric analysis; format: cell-based; details: l929, 24 h
[7] = tested on: Aspergillus fumigatus; assay: Antifungal activity against Aspergillus fumigatus after 72 to 96 hrs by broth microdilution technique; format: functional
[8] = tested on: Candida albicans; assay: Ratio of fluconazole MIC to compound MIC against amphotericin-B resistant Candida albicans after 24 to 48 hrs by broth microdilution technique; format: functional
[9] = tested on: Candida albicans; assay: Anticandidal activity against Candida albicans ATCC10231 after 24 to 48 hrs by broth microdilution technique; format: functional
[10] = tested on: Candida albicans; assay: Anticandidal activity against Candida albicans isolated from patient after 24 to 48 hrs by broth microdilution technique; format: functional
[11] = tested on: Candida albicans; assay: Anticandidal activity against Candida albicans ATCC750 after 24 to 48 hrs by broth microdilution technique; format: functional
[12] = tested on: Sporothrix schenckii; assay: Antifungal activity against Sporothrix schenckii after 72 to 96 hrs by broth microdilution technique; format: functional
[13] = tested on: Cryptococcus neoformans; assay: Antifungal activity against Cryptococcus neoformans after 24 to 48 hrs by broth microdilution technique; format: functional
[14] = tested on: Candida albicans; assay: Antifungal activity against Candida albicans after 24 to 48 hrs by broth microdilution technique; format: functional
[15] = tested on: Sporothrix schenckii; assay: Ratio of fluconazole MIC to compound MIC against Sporothrix schenckii after 72 to 96 hrs by broth microdilution technique; format: functional
[16] = tested on: Candida parapsilosis; assay: Antifungal activity against Candida parapsilosis ATCC22019 after 24 to 48 hrs by broth microdilution technique; format: functional; details: Lodderomyces parapsilosis
[17] = tested on: Candida albicans; assay: Anticandidal activity against Candida albicans ATCC-MYA 2950 after 24 to 48 hrs by broth microdilution technique; format: functional
[18] = tested on: Sporothrix schenckii; assay: Ratio of clotrimazole MIC to compound MIC against Sporothrix schenckii after 72 to 96 hrs by broth microdilution technique; format: functional
[19] = tested on: Trichophyton mentagrophytes; assay: Antifungal activity against Trichophyton mentagrophytes after 72 to 96 hrs by broth microdilution technique; format: functional

Structure (SMILES)	MIC [1] [µg/mL]	MIC [2] [µg/mL]	MIC [3] [µg/mL]	Activity [4]	MIC [5] [µg/mL]	Activity [6]	MIC [7] [µg/mL]	Ratio [8]	MIC [9] [µg/mL]	MIC [10] [µg/mL]	MIC [11] [µg/mL]	MIC [12] [µg/mL]	MIC [13] [µg/mL]	MIC [14] [µg/mL]	Ratio [15]	MIC [16] [µg/mL]	MIC [17] [µg/mL]	Ratio [18]	MIC [19] [µg/mL]
CCCSC(=S)NCc1ccncc1	6.25 (≈ 27.6 µM)	3.12 (≈ 13.8 µM)	1.56 (≈ 6.89 µM)	Non-toxic	6.25 (≈ 27.6 µM)	Toxic	50 (≈ 221 µM)	2	6.25 (≈ 27.6 µM)	12.5 (≈ 55.2 µM)	12.5 (≈ 55.2 µM)	0.39 (≈ 1.72 µM)	12.5 (≈ 55.2 µM)	6.25 (≈ 27.6 µM)	12	12.5 (≈ 55.2 µM)	12.5 (≈ 55.2 µM)	12	3.12 (≈ 13.8 µM)
C=CCSC(=S)NCc1ccncc1	1.56 (≈ 6.95 µM)	6.25 (≈ 27.9 µM)	0.78 (≈ 3.48 µM)	Non-toxic	0.78 (≈ 3.48 µM)	Toxic	25 (≈ 111 µM)	1	1.56 (≈ 6.95 µM)	1.56 (≈ 6.95 µM)	3.12 (≈ 13.9 µM)	0.39 (≈ 1.74 µM)	3.12 (≈ 13.9 µM)	1.56 (≈ 6.95 µM)	12	1.56 (≈ 6.95 µM)	1.56 (≈ 6.95 µM)	12	3.12 (≈ 13.9 µM)
